The record followed here is ChEMBL document CHEMBL1130472, “Potent selective thienoxazinone inhibitors of herpes proteases” (Bioorg Med Chem Lett, 1997).

Data set [1] deals with Cytomegalovirus. Put plainly: Inhibitory concentration for peptidolytic activity against cytomegalovirus (CMV) protease at 10 uM. It counts as functional, organism-based. Particulars: Human betaherpesvirus 5; call rule not given here.
For data set [2], the target named is T1, Capsid scaffolding protein (Herpes simplex virus (type 1 / strain 17), UniProt P10210).
T1 sequence (P10210 whole entry): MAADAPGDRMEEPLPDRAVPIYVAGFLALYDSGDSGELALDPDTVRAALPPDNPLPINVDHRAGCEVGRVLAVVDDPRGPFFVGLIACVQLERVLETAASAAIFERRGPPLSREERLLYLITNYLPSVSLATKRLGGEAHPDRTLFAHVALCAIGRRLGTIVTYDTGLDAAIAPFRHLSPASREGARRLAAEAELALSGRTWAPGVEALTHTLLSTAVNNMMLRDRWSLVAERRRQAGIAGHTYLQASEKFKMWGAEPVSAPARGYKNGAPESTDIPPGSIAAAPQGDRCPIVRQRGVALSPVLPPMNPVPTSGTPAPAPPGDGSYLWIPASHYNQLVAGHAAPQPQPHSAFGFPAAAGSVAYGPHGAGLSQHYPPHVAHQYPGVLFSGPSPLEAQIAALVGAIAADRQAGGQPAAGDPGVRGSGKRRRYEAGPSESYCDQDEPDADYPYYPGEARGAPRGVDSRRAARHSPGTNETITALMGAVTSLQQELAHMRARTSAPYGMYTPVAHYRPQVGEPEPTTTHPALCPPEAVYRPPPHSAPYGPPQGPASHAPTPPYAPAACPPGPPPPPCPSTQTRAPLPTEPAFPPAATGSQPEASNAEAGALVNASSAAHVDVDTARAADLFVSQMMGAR
Put plainly: Inhibitory concentration for peptidolytic activity against herpes simplex type-1 (HSV-1) protease at 10 uM. Set-up: species or system Human alphaherpesvirus 1.

The test system of data set [3] is Human alphaherpesvirus 2. The data set can be described thus: Inhibitory concentration for peptidolytic activity against herpes simplex type-2(HSV-2) protease at 10 uM. Type of data set: functional, organism-based.
The test system of data set [4] is Cytomegalovirus. Put plainly: Percent inhibition for peptidolytic activity against cytomegalovirus (CMV) protease at 10 uM. Type of data set: functional. Conditions: Human betaherpesvirus 5.
In data set [5] the test system is Human alphaherpesvirus 2. The data set can be described thus: Percent inhibition for peptidolytic activity against herpes simplex type-2(HSV-2) protease at 10 uM. Type of data set: functional.
A short description of data set [6]: Tested for peptidolytic activity against subtilisin at a concentration of 1 mM; no inhibition.
Data set [7] is described as follows: Inhibitory concentration for peptidolytic activity against elastase.
Data set [8] is described as follows: Half life was determined. Particulars: rat. Type of data set: ADME.
Data set [9] in a line: Selectivity ratio of inhibitory concentration against elastase and HSV-1.

One may read the IC50 as the concentration at which inhibition is half-maximal. Read a low IC50 as greater potency. Take `O=C(NCc1nc2ccsc2c(=O)o1)OCc1ccccc1`: the IC50 came out at 45 µM in [1] and 2.7 µM in data set [2].
`O=C(N[C@@H](CO)c1nc2ccsc2c(=O)o1)OCc1ccccc1`: the IC50 amounted to 0.33 µM in [3], 20 µM in data set [1] and 0.65 µM in data set [2].
One may read the inhibition as the change of the read-out against control, counted positive when it falls. A low value points to little suppression. `Cc1ccc(S(=O)(=O)N[C@@H](C)c2nc3ccsc3c(=O)o2)cc1`: the inhibition at 10 µM turned out to be 30% in [4] and 13% in [5].
Turning to `C[C@H](NC(=O)OCc1ccccc1)c1nc2c(Cl)c(NC(=O)[C@@H](C)NC(=O)OCc3ccccc3)sc2c(=O)o1`, the results for the IC50 in data set [3] and in data set [1] were 1.6 µM and 1.3 µM, respectively.
Consider `C[C@H](NC(=O)OCc1ccccc1)c1nc2cc(-c3ccccc3)sc2c(=O)o1`, for which the values for the IC50 in data set [1] and in data set [2] were over 300 µM and 3.3 µM, respectively.
For the compound `C[C@H](NC(=O)OC(C)(C)C)c1nc2ccsc2c(=O)o1`, the inhibition at 10 µM in data set [4] was found to be 15%; in data set [5], 32%.
Turning to `C[C@H](NC(=O)OCc1ccccc1)C(=O)Nc1csc2c(=O)oc([C@H](C)NC(=O)OCc3ccccc3)nc12`, the inhibition at 10 µM amounted to 43% in data set [4] and 50% in data set [5].
Broadly, the half-life is how long it takes for the measured level to halve. As to `C[C@H](NC(=O)OCc1ccccc1)c1nc2ccsc2c(=O)o1`, the IC50 in data set [3] is 0.42 µM; in data set [1], 9.4 µM; in [2], 0.48 µM; in [6], “Not Active”; in data set [7], 120 µM. The compound also showed a half-life in data set [8] of over 100 h. For the same compound, in [9], the Ratio worked out at 250.
Regarding `Cc1csc2c(=O)oc([C@H](C)NC(=O)OCc3ccccc3)nc12`, the IC50 in data set [1] is 12 µM; in data set [2], 3.1 µM.
As to `C[C@H](Nc1ccc([N+](=O)[O-])cc1[N+](=O)[O-])c1nc2ccsc2c(=O)o1`, the IC50 in data set [3] worked out at 2.9 µM; in data set [1] it was 3.3 µM.
For `C[C@H](NC(=O)NCc1ccccc1)c1nc2ccsc2c(=O)o1`, the figures for the inhibition at 10 µM in [4] and in data set [5] were 20% and 1%, respectively.
Turning to `NC(=O)C[C@H](NC(=O)OCc1ccccc1)c1nc2ccsc2c(=O)o1`, the IC50 in [1] was determined as 18 µM; in data set [2], 10 µM.
The compound `Cc1cccc2nc([C@H](C)NC(=O)OCc3ccccc3)oc(=O)c12` returned an IC50 in data set [7] of 0.22 µM. Further, the half-life in [8] is 33 h. Also, the Ratio in [9] amounted to 0.002.
`NC(=O)CC[C@H](NC(=O)OCc1ccccc1)c1nc2ccsc2c(=O)o1` came in with a 50% inhibitory concentration (IC50) in data set [2] of 6.3 µM.
For `CC(C)[C@H](NC(=O)OCc1ccccc1)c1nc2ccsc2c(=O)o1`, the IC50 in data set [1] turned out to be 26 µM; in [2] it was 31 µM.
For `O=C(N[C@@H](Cc1ccccc1)c1nc2ccsc2c(=O)o1)OCc1ccccc1`, in that order: 3.5 µM and over 300 µM.
With `C[C@H](NC(=O)Nc1ccccc1)c1nc2ccsc2c(=O)o1`, the IC50 in data set [3] and in [1] was over 100 µM in each case.
As to `C[C@H](NC(=O)OCc1ccccc1)c1nc2ccccc2c(=O)o1`, the IC50 in data set [7] amounted to 45 µM. In data set [8], the half-life is 14 h. Besides, the Ratio in [9] came out at 1.1.
